The values that follow come from patent US12502379B2, “Ponesimod for avoiding worsening of fatigue-related symptoms in multiple sclerosis patients” (Vanda Pharmaceuticals Inc., priority 2019, dated 2025).

In data set [1] the test system is adult subjects with relapsing MS. The experiment in a line: Time to first 12-week confirmed disability accumulation (CDA) on EDSS. The class given is in vivo, human. The protocol: (§1) Secondary efficacy variables and testing strategy: Four secondary efficacy endpoints were analyzed as per the statistical testing strategy outlined in FIG. 1. • Change from baseline to Week 108 in fatigue-related symptoms as measured by the symptoms domain of the FSIQ-RMS patient-reported outcome [Fatigue] • Cumulative number of combined unique active lesions from baseline to Week 108 on brain MRI [CUALs] • Time to first 12-week confirmed disability accumulation (CDA) from baseline to EOS on Expanded Disability Status Scale (EDSS) [12-week CDA] • Time to first 24-week CDA from baseline to EOS on EDSS [24-week CDA]
A 12-week CDA is an increase of at least 1.5 in EDSS for subjects with a baseline EDSS score of 0.0 or an increase of at least 1.0 in EDSS for subjects with a baseline EDSS score of 1.0 to 5.0, or an increase of at least 0.5 in EDSS for subjects with a baseline EDSS score ≥5.5 which is to be confirmed after 12 weeks.
Baseline EDSS is defined as the last EDSS score recorded prior to randomization. The initial EDSS increase, meeting the above criteria, is defined as the onset of disability accumulation.
All EDSS measurements (with or without relapse, at a scheduled or unscheduled visit) were used to determine the onset of disability accumulation. […]

Data set [2] is described as follows: Treatment-emergent adverse events, Safety Set.
Description: A prospective, multicenter, randomized, double-blind, active controlled, parallel-group, phase III, superiority study was conducted.
The Safety Set (SAF) included all randomized subjects who received at least one dose of study treatment. Subjects were analyzed based on actual treatment taken, not randomized treatment.
For data set [3], the system named is adult subjects with relapsing MS. The experiment in a line: Combined unique active lesions (CUAL) on brain MRI from baseline to Week 108. The class given is in vivo, human. The protocol: as §1
CUAL are new Gd+T1 lesions plus new or enlarging T2 lesions (without double-counting of lesions).
MRI scans were performed at Visits 2 (Baseline), 10 (Week 60), and 14 (EOT) and at any unscheduled visit (U1, U2, etc.). If applicable, MRI scans also were performed at the corresponding visits in the PTOP (Visits 10A and 14A). Testing at all visits were performed up to 7 days prior to or after the visit date.
MRI variables included the number and volume of new and total Gd+ lesions on T1-weighted MRI scans, number of new and enlarging lesions and lesion volume on T2-weighted MRI, and global measures of loss of brain tissue.
T1-weighted imaging before and after i.v. administration of 0.1 mmol/kg body weight (=0.2 mL/kg) of Gd as well as PD-T2-weighted imaging was performed. […]

In data set [4] the test system is Patients (18-55 years) with RMS. The experiment in a line: Pre-specified MRI endpoints (Example 2). The format is in vivo, human. As to conditions: PON 20 mg vs TER 14 mg; baseline to week 108. The protocol:
In this study, prespecified MRI-based endpoints and no evidence of disease activity (NEDA) status is evaluated.
Patients (18-55 years) with RMS (expanded disability status scale scores: 0-5.5) were randomized (1:1) to receive ponesimod (PON) 20 mg or teriflunomide (TER) 14 mg for 108 weeks. MRI assessments were: volume of T2 lesions; mean number of new gadolinium-enhancing (Gd+) T1 lesions and new/enlarging T2 lesions; and absence of active MRI lesions at week 108. NEDA-3 status (absence of confirmed relapse, Gd+T1 lesions and new/enlarging T2 lesions on annual MRIs, and 12-week confirmed disability accumulation) was evaluated from baseline to week 108.

Setting [5] is: Day 1 (ponesimod dose 2 mg per up-titration), Safety Set, N = 565 / 566.
Setting [6] is: Safety Set, ponesimod 20 mg N = 565, teriflunomide 14 mg N = 566.
Setting [7] is: ponesimod 20 mg, teriflunomide 14 mg.

For the compound `CCC/N=C1\S/C(=C\c2ccc(OC[C@H](O)CO)c(Cl)c2)C(=O)N1c1ccccc1C` [Ponesimod, (R)-5-[3-chloro-4-(2,3-dihydroxy-propoxy)-benz[Z]ylidene]-2-([Z]-propylimino)-3-o-tolyl-thiazolidin-4-one], in data set [1] (ponesimod 20 mg vs teriflunomide 14 mg, stratified Cox regression), the “Time to first 12-week CDA, hazard ratio” value is given as 0.83. The “Reduction of the risk of 12-week CDA compared to teriflunomide 14 mg” value in data set [1] (ponesimod 20 mg, not statistically significant) was 17%. Also, in data set [2] (setting [5]), the “AESI effect on heart rate and rhythm (including hypotension) on Day 1: Subjects with at least one AE” value was found to be 2.1%; the “AESI heart rate and rhythm on Day 1, PT: Electrocardiogram QT prolonged” value was 0 n; the “AESI heart rate and rhythm on Day 1, PT: Presyncope” value was determined as 0 n. In data set [2] (setting [6]), the “Subject with at least one AE (treatment-emergent)” value was 88.8%, the “Subject with at least one AE leading to study drug discontinuation” value stood at 8.7%, the “Subject with at least one Fatal AE” value was 0 n and the “Subject with at least one Serious AE” value amounted to 8.7%. In addition, in data set [2] (setting [6]), the “TEAEs leading to premature discontinuation of study drug, SOC: Reproductive system and breast disorders” value was 0 n; the “TEAEs leading to premature discontinuation of study drug, SOC: Surgical and medical procedures” value amounted to 0 n; the “Treatment-emergent AESI: Hepatobiliary disorders/Liver enzyme abnormality” value turned out to be 25.7%; the “Treatment-emergent AESI: Hypertension” value is recorded as 10.1%. The “Treatment-emergent AESI: Pulmonary events” value in data set [2] (setting [6]) stood at 8.0%. Further, in data set [2] (setting [7]), the “TEAE: ALT increased” value is given as 19.5%, the “TEAE: headache” value was found to be 11.5%, the “TEAE: nasopharyngitis” value was found to be 19.3% and the “TEAE: upper respiratory tract infection” value is given as 10.6%. Also, in data set [3] (ponesimod 20 mg), the “Reduction of the number of CUALs between baseline and week 108 compared to teriflunomide 14 mg” value is 56%. Besides, the “CUAL treatment effect (Rate Ratio)” value in data set [3] (ponesimod 20 mg vs teriflunomide 14 mg, baseline to Week 108) amounted to 0.44. In data set [4], the “New Gd+T1 lesions per scan, rate ratio [RR]” value was 0.42 and the “New/enlarging T2 lesions per year, RR” value worked out at 0.44.
